Results: the NIST ThermoML archive (doi:10.1016/j.tca.2013.02.010)

Legend:
[1] = refractive index (Na D-line) (dimensionless); conditions: 298.15 K; 101.33 kPa; Liquid; Standard Abbe refractometry
[2] = 101.33 kPa, Liquid, Pycnometric method
[3] = xn = mol fraction of the nth substance listed; conditions: 308.15 K, 101 kPa, Liquid, Direct dilatometry
[4] = excess molar enthalpy (molar enthalpy of mixing); xn = mol fraction of the nth substance listed; conditions: 101 kPa, Liquid, Flow calorimetry

NC=O [formamide]
Conditions | refractive index
[1] | 1.4461

[2]
Conditions | mass density [kg/m3]
298.15 K | 1129.04
308.15 K | 1120.45

NC=O [formamide] + CC(C)O
[3]
Conditions | excess molar volume [m3/mol]
x1 = 0.0455 | -3.2e-08
x1 = 0.1021 | -6.4e-08
x1 = 0.1327 | -7.9e-08
x1 = 0.1725 | -1.05e-07
x1 = 0.2155 | -1.34e-07
x1 = 0.2692 | -1.69e-07
x1 = 0.3269 | -2.06e-07
x1 = 0.3535 | -2.27e-07
x1 = 0.3867 | -2.48e-07
x1 = 0.4245 | -2.71e-07
x1 = 0.485 | -3e-07
x1 = 0.5191 | -3.13e-07
x1 = 0.5729 | -3.28e-07
x1 = 0.6237 | -3.32e-07
x1 = 0.6951 | -3.31e-07
x1 = 0.7543 | -3.11e-07
x1 = 0.7907 | -2.9e-07
x1 = 0.825 | -2.61e-07
x1 = 0.8735 | -2e-07
x1 = 0.8999 | -1.71e-07
x1 = 0.9331 | -1.18e-07
x1 = 0.9745 | -5.1e-08

[4]
Conditions | excess molar enthalpy [kJ/mol]
298.15 K, x1 = 0.056 | 0.246
298.15 K, x1 = 0.073 | 0.308
298.15 K, x1 = 0.099 | 0.403
298.15 K, x1 = 0.125 | 0.466
298.15 K, x1 = 0.162 | 0.56
298.15 K, x1 = 0.2 | 0.623
298.15 K, x1 = 0.253 | 0.699
298.15 K, x1 = 0.291 | 0.731
298.15 K, x1 = 0.329 | 0.757
298.15 K, x1 = 0.4 | 0.776
298.15 K, x1 = 0.468 | 0.772
298.15 K, x1 = 0.537 | 0.749
298.15 K, x1 = 0.597 | 0.711
298.15 K, x1 = 0.662 | 0.657
298.15 K, x1 = 0.702 | 0.618
298.15 K, x1 = 0.728 | 0.58
298.15 K, x1 = 0.766 | 0.529
298.15 K, x1 = 0.812 | 0.452
298.15 K, x1 = 0.849 | 0.382
298.15 K, x1 = 0.878 | 0.322
298.15 K, x1 = 0.901 | 0.266
298.15 K, x1 = 0.941 | 0.17
308.15 K, x1 = 0.0666 | 0.334
308.15 K, x1 = 0.0916 | 0.432
308.15 K, x1 = 0.1166 | 0.518
308.15 K, x1 = 0.1501 | 0.617
308.15 K, x1 = 0.1812 | 0.692
308.15 K, x1 = 0.229 | 0.789
308.15 K, x1 = 0.2702 | 0.846
308.15 K, x1 = 0.3082 | 0.896
308.15 K, x1 = 0.3666 | 0.937
308.15 K, x1 = 0.425 | 0.961
308.15 K, x1 = 0.4958 | 0.961
308.15 K, x1 = 0.5624 | 0.937
308.15 K, x1 = 0.629 | 0.876
308.15 K, x1 = 0.6832 | 0.803
308.15 K, x1 = 0.7124 | 0.757
308.15 K, x1 = 0.7503 | 0.685
308.15 K, x1 = 0.7958 | 0.585
308.15 K, x1 = 0.8374 | 0.48
308.15 K, x1 = 0.8708 | 0.39
308.15 K, x1 = 0.8874 | 0.337
308.15 K, x1 = 0.9082 | 0.282
308.15 K, x1 = 0.954 | 0.141

NC=O [formamide] + CCCO
[3]
Conditions | excess molar volume [m3/mol]
x1 = 0.0615 | -3e-08
x1 = 0.1052 | -4.3e-08
x1 = 0.165 | -6e-08
x1 = 0.1937 | -6.9e-08
x1 = 0.2453 | -7.8e-08
x1 = 0.2856 | -9.1e-08
x1 = 0.3317 | -1.05e-07
x1 = 0.372 | -1.12e-07
x1 = 0.3949 | -1.25e-07
x1 = 0.4236 | -1.35e-07
x1 = 0.4639 | -1.48e-07
x1 = 0.5213 | -1.61e-07
x1 = 0.5903 | -1.71e-07
x1 = 0.6394 | -1.71e-07
x1 = 0.6765 | -1.68e-07
x1 = 0.7225 | -1.59e-07
x1 = 0.7686 | -1.42e-07
x1 = 0.8031 | -1.23e-07
x1 = 0.8492 | -1e-07
x1 = 0.8837 | -7.8e-08
x1 = 0.9124 | -5.5e-08
x1 = 0.9411 | -3.3e-08

[4]
Conditions | excess molar enthalpy [kJ/mol]
298.15 K, x1 = 0.0624 | 0.257
298.15 K, x1 = 0.0881 | 0.343
298.15 K, x1 = 0.1208 | 0.441
298.15 K, x1 = 0.1479 | 0.513
298.15 K, x1 = 0.1832 | 0.588
298.15 K, x1 = 0.2231 | 0.651
298.15 K, x1 = 0.254 | 0.695
298.15 K, x1 = 0.3018 | 0.735
298.15 K, x1 = 0.3775 | 0.757
298.15 K, x1 = 0.452 | 0.748
298.15 K, x1 = 0.4832 | 0.741
298.15 K, x1 = 0.5364 | 0.702
298.15 K, x1 = 0.5953 | 0.661
298.15 K, x1 = 0.6672 | 0.603
298.15 K, x1 = 0.6958 | 0.573
298.15 K, x1 = 0.7521 | 0.511
298.15 K, x1 = 0.7958 | 0.455
298.15 K, x1 = 0.8443 | 0.382
298.15 K, x1 = 0.8956 | 0.287
298.15 K, x1 = 0.9208 | 0.234
298.15 K, x1 = 0.9526 | 0.151
298.15 K, x1 = 0.9666 | 0.117
308.15 K, x1 = 0.0582 | 0.264
308.15 K, x1 = 0.079 | 0.345
308.15 K, x1 = 0.104 | 0.431
308.15 K, x1 = 0.1374 | 0.525
308.15 K, x1 = 0.1624 | 0.592
308.15 K, x1 = 0.2082 | 0.688
308.15 K, x1 = 0.2416 | 0.74
308.15 K, x1 = 0.275 | 0.782
308.15 K, x1 = 0.3332 | 0.828
308.15 K, x1 = 0.4124 | 0.845
308.15 K, x1 = 0.4666 | 0.852
308.15 K, x1 = 0.5082 | 0.831
308.15 K, x1 = 0.5666 | 0.803
308.15 K, x1 = 0.625 | 0.74
308.15 K, x1 = 0.679 | 0.686
308.15 K, x1 = 0.725 | 0.627
308.15 K, x1 = 0.775 | 0.55
308.15 K, x1 = 0.8166 | 0.473
308.15 K, x1 = 0.8666 | 0.367
308.15 K, x1 = 0.9124 | 0.26
308.15 K, x1 = 0.9416 | 0.178
308.15 K, x1 = 0.9582 | 0.128

CCCO [propan-1-ol]
Conditions | refractive index
[1] | 1.3835

[2]
Conditions | mass density [kg/m3]
298.15 K | 799.76
308.15 K | 791.48

CC(C)O [propan-2-ol]
Conditions | refractive index
[1] | 1.3753

[2]
Conditions | mass density [kg/m3]
298.15 K | 781.25
308.15 K | 772.3
